Consider five compounds from patent US9970929B2, “Voriconazole immunoassays” (ARK Diagnostics, Inc., priority 2013, dated 2018).

Molecules are shown by their SMILES.

One assay deals with antibody Ab15461(P3). Description: homogeneous enzyme immunoassay for voriconazole (conjugate VOR-8 G6PDH, HITACHI 917), calibration and crossreactivity. Type of assay: binding, rabbit. The settings on record: for cross reaction with antibody Ab15461(P3), in words: summary of Tables 2 and 3. The source says:
Antibodies obtained using any of the disclosed techniques are screened or purified not only for their ability to react with voriconazole, but for a low cross-reactivity with potential interfering substances. “Cross-reactivity” may be determined in a quantitative immunoassay by establishing a standard curve using known dilutions of the target analyte, voriconazole. The standard curve is then used to calculate the apparent concentration of the interfering substance present in various known amounts in samples assayed under similar condition. The cross-reactivity can be calculated as the apparent concentration divided by the actual concentration multiplied by 100. A certain immunoassay for determining cross-reactivity is a homogeneous enzyme immunoassay using a wild type G6PDH as described in U.S. Pat. No. 3,817,837 or mutant G6PDH engineered to contain a cysteine per subunit as described in U.S. Pat. Nos. 6,033,890, 6,090,567 and 6,455,288. Furthermore, the cross-reactivity can be determined in the same type of immunoassay in which the antibody will ultimately be used.
Rabbit polyclonal antibody Ab15461(P3) was used to measure a substantial change in enzyme activity, generate a calibration curve, and evaluate assay precision, accuracy and specificity. The antibody was added into the antibody diluent to prepare the antibody reagent. The antibody reagent consisted of antibody as prepared above, buffer, stabilizers, preservatives, and the substrates for the enzyme conjugate nicotinamide adenine dinucleotide (NAD^+) and glucose-6-phosphate. Enzyme conjugate including compound VOR-8 G6PDH was added into the conjugate diluent to prepare the enzyme conjugate reagent. The enzyme conjugate reagent included the conjugate, buffer, stabilizers and preservatives. Enzyme conjugate VOR-8 G6PDH was used with rabbit polyclonal antibody Ab15461(P3) in examples below. This technique is generally applicable to produce polyclonal antibodies to voriconazole derivatives and assess their utility.
The voriconazole antibodies and enzyme conjugates may be used in a homogeneous assay format to detect voriconazole samples. An instrument useful to set up the assay is Hitachi 917 Analyzer (Roche). Voriconazole containing sample is incubated with antibody reagent followed by the addition of the enzyme conjugate reagent. The enzyme conjugate activity decreases upon binding to the antibody. The enzyme conjugate, which is not bound to the antibody, catalyzes the oxidation of glucose 6-phosphate (G6P). The oxidation of G6P is coupled with the reduction of NAD^+ to NADH, which can be measured at 340 nm. The change in the absorbance at 340 nm can be measured spectrophotometrically. The voriconazole concentration in a sample can be measured in terms of G6PDH activity. The increase in the rate at 340 nm is due to the formation of NADH and is proportional to the enzyme conjugate activity. An assay curve is generated using voriconazole added into serum negative for voriconazole. The assay rate increases with increasing the concentration of free drug in the sample.
Voriconazole was dissolved in methanol to give a stock solution of 1000 μg/mL. Pooled human serum was aliquoted in 10 mL portions. Voriconazole stock solution was added to the aliquots of human serum in preparing a series of known concentrations of voriconazole calibrators ranging from 0 to 16 μg/mL. The assay was performed using Enzyme Conjugate Reagent NB051:79 containing conjugate VOR-8 G6PDH and Antibody Reagent NB051:79 containing antibody Ab15461(P3). Calibration curves were generated on the HITACHI 917 automated clinical chemistry analyzer, as described in Example 10 by measuring each level in duplicate.
The major metabolic pathway of voriconazole is an enzymatic oxidation of voriconazole. […] The voriconazole metabolite, N-oxide voriconazole was tested in the immunoassay for potential cross reactivity. […]

Another assay relates to antifungal activity. Conditions: in vitro, versus voriconazole; cited from earlier work.
[1] abbreviates: antifungal triazole 20 μg/mL added to voriconazole 10 μg/mL in human serum.

As for `OC(Cn1cncn1)(Cn1cncn1)c1ccc(F)cc1F` [Fluconazole], the “Cross-reactivity (%)” value in the assay on antibody Ab15461(P3) (setting [1]) turned out to be 2.7%. Also, the “cross reaction with antibody Ab15461(P3), in words” value (shortened to “cross reaction”) with antibody Ab15461(P3) is “did not significantly crossreact”.

With `CCC(C)n1ncn(-c2ccc(N3CCN(c4ccc(OCC5COC(Cn6cncn6)(c6ccc(Cl)cc6Cl)O5)cc4)CC3)cc2)c1=O` (stereo not drawn) [Itrconazole, Itraconazole], in the assay with antibody Ab15461(P3) (setting [1]), the “Cross-reactivity (%)” value came out at 1.2%. Besides, the “cross reaction” value with antibody Ab15461(P3) is “did not significantly crossreact”.

In the case of `CC[C@@H]([C@H](C)O)n1ncn(-c2ccc(N3CCN(c4ccc(OC[C@@H]5CO[C@@](Cn6cncn6)(c6ccc(F)cc6F)C5)cc4)CC3)cc2)c1=O` [Posaconazole], in the assay on antibody Ab15461(P3) (setting [1]), the “Cross-reactivity (%)” value is on record as −2.5%. The “cross reaction” value with antibody Ab15461(P3) was “did not significantly crossreact”.

As for `C[C@@H](c1nc[n+]([O-])cc1F)[C@](O)(Cn1cncn1)c1ccc(F)cc1F` [Vor-N-Oxide, 4-((2S,3R)-3-(2,4-difluorophenyl)-3-hydroxy-4-(1H-1,2,4-triazol-1-yl)butan-2-yl)-5-fluoropyrimidine 1-oxide], the “Cross-reactivity (%)” value with antibody Ab15461(P3) (Vor-N-Oxide 5 μg/mL added to voriconazole 10 μg/mL in human serum, 100 × (mean Test − mean Control) ÷ conc. tested) is on record as 6.7%; with antibody Ab15461(P3) (Vor-N-Oxide 15 μg/mL added to voriconazole 10 μg/mL in human serum), 6.7%. For the same compound, the “cross reaction” value with antibody Ab15461(P3) is given as “does not cross react significantly”. In addition, in the assay on antifungal activity, the “antifungal potency, fold less potent than the parent drug” value is recorded as 100 fold.

On to `C[C@@H](c1ncncc1F)[C@](O)(Cn1cncn1)c1ccc(F)cc1F` [Voriconazole, (2R,3S)-2-(2,4-difluorophenyl)-3-(5-fluoro-4-pyrimidinyl)-1-(1H-1,2,4-triazol-1-yl)-2-butanol], for which the “Reaction Rate (mA/min) Average of Duplicates” value was 327.2 mA/min in the assay with antibody Ab15461(P3) (voriconazole 1.0 μg/mL calibrator in pooled human serum); 337.4 mA/min in the assay on antibody Ab15461(P3) (voriconazole 2.0 μg/mL calibrator in pooled human serum); 349.6 mA/min in the assay with antibody Ab15461(P3) (voriconazole 4.0 μg/mL calibrator in pooled human serum); 362.4 mA/min in the assay with antibody Ab15461(P3) (voriconazole 8.0 μg/mL calibrator in pooled human serum); 380.4 mA/min in the assay with antibody Ab15461(P3) (voriconazole 16.0 μg/mL calibrator in pooled human serum).
